Source: ChEMBL document CHEMBL2203036, “Discovery of 1-[2-(2,4-dimethylphenylsulfanyl)phenyl]piperazine (Lu AA21004): a novel multimodal compound for the treatment of major depressive disorder” (J Med Chem, 2011)
Calls of active or inactive are those of the source. The calls are words filed in the database; no cut-off is given here.

How the values were obtained:
Histamine H1 receptor = Histamine H1 receptor (Homo sapiens, UniProt P35367); experiment: Binding affinity to human histamine H1 receptor
Chain of Histamine H1 receptor (P35367 whole entry): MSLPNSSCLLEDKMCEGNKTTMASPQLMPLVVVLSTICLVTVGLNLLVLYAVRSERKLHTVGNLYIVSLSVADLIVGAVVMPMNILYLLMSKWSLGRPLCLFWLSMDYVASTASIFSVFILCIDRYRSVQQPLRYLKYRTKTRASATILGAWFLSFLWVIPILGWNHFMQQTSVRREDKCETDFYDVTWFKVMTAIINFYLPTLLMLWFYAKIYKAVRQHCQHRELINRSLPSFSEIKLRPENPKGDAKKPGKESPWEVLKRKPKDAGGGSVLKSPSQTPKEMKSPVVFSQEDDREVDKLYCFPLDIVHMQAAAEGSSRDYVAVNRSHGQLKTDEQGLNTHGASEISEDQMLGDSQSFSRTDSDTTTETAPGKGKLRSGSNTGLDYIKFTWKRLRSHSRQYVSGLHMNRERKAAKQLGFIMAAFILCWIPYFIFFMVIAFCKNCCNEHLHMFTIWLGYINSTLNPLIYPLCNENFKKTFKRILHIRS

Histamine H2 receptor = Histamine H2 receptor (Homo sapiens, UniProt P25021); experiment: Binding affinity to human histamine H2 receptor
Chain of Histamine H2 receptor (P25021 whole entry): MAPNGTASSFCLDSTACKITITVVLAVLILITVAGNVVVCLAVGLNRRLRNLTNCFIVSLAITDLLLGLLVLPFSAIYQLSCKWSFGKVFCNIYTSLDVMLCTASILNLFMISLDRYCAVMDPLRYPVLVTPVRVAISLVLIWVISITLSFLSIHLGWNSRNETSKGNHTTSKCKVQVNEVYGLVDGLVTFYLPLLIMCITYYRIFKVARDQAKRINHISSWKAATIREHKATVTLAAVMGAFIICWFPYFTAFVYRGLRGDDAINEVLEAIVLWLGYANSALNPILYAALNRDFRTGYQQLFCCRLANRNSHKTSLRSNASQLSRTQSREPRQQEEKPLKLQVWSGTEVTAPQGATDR

[1] = biological target: T1, 5-hydroxytryptamine receptor 3A (Homo sapiens, UniProt P46098); experiment: Displacement of [3H]granisetron from human 5HT3A receptor expressed in HEK293 cells by filter binding assay; type: cell-based
T1 sequence (P46098 whole entry): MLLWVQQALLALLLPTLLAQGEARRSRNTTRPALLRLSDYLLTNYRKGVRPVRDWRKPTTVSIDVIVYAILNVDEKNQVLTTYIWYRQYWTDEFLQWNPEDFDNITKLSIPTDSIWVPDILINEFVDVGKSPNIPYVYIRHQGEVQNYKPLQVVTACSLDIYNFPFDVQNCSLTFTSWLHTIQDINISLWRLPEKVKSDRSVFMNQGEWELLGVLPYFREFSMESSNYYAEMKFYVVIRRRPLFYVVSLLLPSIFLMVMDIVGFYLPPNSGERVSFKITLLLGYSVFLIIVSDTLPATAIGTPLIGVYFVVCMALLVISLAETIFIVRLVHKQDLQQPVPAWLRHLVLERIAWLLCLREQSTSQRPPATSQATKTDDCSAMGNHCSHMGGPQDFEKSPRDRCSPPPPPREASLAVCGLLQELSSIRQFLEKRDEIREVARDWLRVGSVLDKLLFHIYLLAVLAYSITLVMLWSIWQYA

Cytochrome P450 1A2 = biological target: T2, Cytochrome P450 1A2 (Homo sapiens, UniProt P05177); experiment: Inhibition of human recombinant CYP1A2 using 7-ethoxy-3-cyanocoumarin after 28 mins by fluorescence spectrophotometric analysis; type: ADME
T2 sequence (P05177 whole entry): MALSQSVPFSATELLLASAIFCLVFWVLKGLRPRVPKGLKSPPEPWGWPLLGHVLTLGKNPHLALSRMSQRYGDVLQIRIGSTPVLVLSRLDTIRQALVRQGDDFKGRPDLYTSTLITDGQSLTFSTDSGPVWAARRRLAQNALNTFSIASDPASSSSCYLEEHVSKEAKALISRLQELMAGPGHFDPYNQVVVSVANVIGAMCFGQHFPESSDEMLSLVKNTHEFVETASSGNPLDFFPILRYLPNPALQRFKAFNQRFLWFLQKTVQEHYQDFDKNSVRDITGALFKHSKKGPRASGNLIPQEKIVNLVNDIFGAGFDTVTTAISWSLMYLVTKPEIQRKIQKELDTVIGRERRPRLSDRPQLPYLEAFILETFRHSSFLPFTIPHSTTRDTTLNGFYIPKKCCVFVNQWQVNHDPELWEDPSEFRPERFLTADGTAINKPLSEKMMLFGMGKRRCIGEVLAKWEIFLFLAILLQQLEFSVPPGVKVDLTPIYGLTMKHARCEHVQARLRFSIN

Liver microsomes [2] = experiment: Intrinsic clearance in human liver microsomes at 1 uM after 60 mins by LC-MS/MS analysis; type: ADME, Microsome; conditions: 1 h
[3] = biological target: T3, 5-hydroxytryptamine receptor 1B (Homo sapiens, UniProt P28222); experiment: Binding affinity at human 5HT1B receptor
T3 sequence (P28222 whole entry): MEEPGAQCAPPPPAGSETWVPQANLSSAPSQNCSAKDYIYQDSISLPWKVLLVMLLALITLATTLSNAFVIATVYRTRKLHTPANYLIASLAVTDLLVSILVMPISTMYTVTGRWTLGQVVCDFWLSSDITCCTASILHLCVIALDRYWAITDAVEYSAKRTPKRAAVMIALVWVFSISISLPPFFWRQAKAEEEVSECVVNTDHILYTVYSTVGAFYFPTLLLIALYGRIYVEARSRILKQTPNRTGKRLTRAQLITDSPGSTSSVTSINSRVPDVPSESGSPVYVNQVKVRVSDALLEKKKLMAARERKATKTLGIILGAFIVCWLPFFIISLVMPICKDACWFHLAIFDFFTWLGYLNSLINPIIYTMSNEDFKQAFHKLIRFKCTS

[4] = biological target: T3, 5-hydroxytryptamine receptor 1B; experiment: Partial agonist activity at human 5HT1B receptor expressed in CHO cells assessed as [35S]GTPgammaS binding; type: functional, cell-based
[5] = biological target: T4, 5-hydroxytryptamine receptor 3A (Homo sapiens) (UniProt P46098); experiment: Inhibition of human 5HT3A receptor at 1 uM
T4 sequence (whole entry): T1 sequence (P46098 whole entry)

Rattus norvegicus [6] = experiment: Antidepression activity in sc dosed Harlan rat assessed as increase in extracellular 5HT level in ventral hippocampus region measured up to 180 mins by microdialysis method
[7] = biological target: Sodium-dependent noradrenaline transporter (Homo sapiens) (UniProt P23975); experiment: Inhibition of human NET at 1 uM
[8] = biological target: 5-hydroxytryptamine receptor 5A (Homo sapiens, UniProt P47898); experiment: Binding affinity to human 5HT5A receptor
Chain of 5-hydroxytryptamine receptor 5A (P47898 whole entry): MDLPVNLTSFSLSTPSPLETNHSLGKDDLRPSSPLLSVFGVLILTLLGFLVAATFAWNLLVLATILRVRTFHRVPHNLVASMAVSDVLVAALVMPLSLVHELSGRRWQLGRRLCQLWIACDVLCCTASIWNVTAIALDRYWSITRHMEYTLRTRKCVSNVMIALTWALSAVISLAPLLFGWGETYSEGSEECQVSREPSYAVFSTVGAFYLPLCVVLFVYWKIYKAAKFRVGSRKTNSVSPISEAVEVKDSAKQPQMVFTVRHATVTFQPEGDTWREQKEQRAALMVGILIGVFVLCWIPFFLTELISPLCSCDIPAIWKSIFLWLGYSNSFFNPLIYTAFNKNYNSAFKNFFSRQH

Rattus norvegicus [9] = experiment: Target occupancy at SERT in Harlan rat at 5 mg/kg, sc administered QD for 3 days relative to vehicle-treated control; type: functional; conditions: route subcutaneous
[10] = biological target: T4, 5-hydroxytryptamine receptor 3A (Homo sapiens); experiment: Agonist activity at human 5HT3A receptor expressed in xenopus oocytes by electrophysiological method relative to 5HT; conditions: Oocyte
Rattus norvegicus [11] = experiment: Antidepression activity in Harlan rat assessed as increase in extracellular 5HT level in ventral hippocampus region at 5 to 10 mg/kg, sc measured from 40 to 180 mins by microdialysis method
[12] = biological target: T3, 5-hydroxytryptamine receptor 1B; experiment: Partial agonist activity at human 5HT1B receptor expressed in CHO cells assessed as [35S]GTPgammaS binding relative to 5HT
Cytochrome P450 2C9 = Cytochrome P450 2C9 (Homo sapiens, UniProt P11712); experiment: Inhibition of human recombinant CYP2C9 using dibenzylfluorescein after 45 mins by fluorescence spectrophotometric analysis; type: ADME
Chain of Cytochrome P450 2C9 (P11712 whole entry): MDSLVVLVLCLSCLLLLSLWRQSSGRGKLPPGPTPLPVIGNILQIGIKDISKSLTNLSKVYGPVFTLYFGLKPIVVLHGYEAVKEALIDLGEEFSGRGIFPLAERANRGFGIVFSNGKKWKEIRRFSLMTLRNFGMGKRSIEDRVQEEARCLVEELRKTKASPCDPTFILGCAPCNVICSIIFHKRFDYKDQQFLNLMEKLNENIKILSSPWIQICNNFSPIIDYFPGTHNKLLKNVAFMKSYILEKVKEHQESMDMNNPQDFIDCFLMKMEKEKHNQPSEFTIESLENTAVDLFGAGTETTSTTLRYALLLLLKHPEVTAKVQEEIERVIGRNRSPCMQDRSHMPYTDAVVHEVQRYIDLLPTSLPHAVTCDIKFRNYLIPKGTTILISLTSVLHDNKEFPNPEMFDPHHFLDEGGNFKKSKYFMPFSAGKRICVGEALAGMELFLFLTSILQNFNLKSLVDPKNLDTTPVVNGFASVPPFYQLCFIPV

[13] = biological target: 5-hydroxytryptamine receptor 1A (Rattus norvegicus) (UniProt P19327); experiment: Binding affinity to rat 5HT1A receptor
Chain of 5-hydroxytryptamine receptor 1A (Rattus norvegicus) (P19327 whole entry, looked up): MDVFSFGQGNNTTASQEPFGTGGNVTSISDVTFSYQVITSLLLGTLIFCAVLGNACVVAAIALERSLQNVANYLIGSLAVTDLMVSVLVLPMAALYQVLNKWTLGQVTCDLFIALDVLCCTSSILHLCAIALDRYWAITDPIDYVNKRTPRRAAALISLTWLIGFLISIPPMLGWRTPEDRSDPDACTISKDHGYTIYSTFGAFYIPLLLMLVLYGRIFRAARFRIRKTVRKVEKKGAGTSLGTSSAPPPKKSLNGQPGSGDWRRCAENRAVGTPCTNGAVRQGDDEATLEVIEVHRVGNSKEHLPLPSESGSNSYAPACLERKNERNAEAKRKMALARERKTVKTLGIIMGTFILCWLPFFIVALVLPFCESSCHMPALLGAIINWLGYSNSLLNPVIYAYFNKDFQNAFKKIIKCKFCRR

Liver microsomes [14] = experiment: Intrinsic clearance in rat liver microsomes at 1 uM after 60 mins by LC-MS/MS analysis; type: ADME, Microsome; conditions: 1 h
[15] = biological target: T4, 5-hydroxytryptamine receptor 3A (Homo sapiens); experiment: Agonist activity at human 5HT3A receptor expressed in xenopus oocytes by electrophysiological method in presence of ondansetron; conditions: Oocyte
Rattus norvegicus [16] = experiment: Antidepression activity in Harlan rat assessed as increase in extracellular 5HT level in ventral hippocampus region at 2.5 mg/kg, sc measured from 60 to 120 mins by microdialysis method
[17] = biological target: Beta-2 adrenergic receptor (Homo sapiens, UniProt P07550); experiment: Binding affinity to human beta 2 adrenergic receptor
Chain of Beta-2 adrenergic receptor (P07550 whole entry): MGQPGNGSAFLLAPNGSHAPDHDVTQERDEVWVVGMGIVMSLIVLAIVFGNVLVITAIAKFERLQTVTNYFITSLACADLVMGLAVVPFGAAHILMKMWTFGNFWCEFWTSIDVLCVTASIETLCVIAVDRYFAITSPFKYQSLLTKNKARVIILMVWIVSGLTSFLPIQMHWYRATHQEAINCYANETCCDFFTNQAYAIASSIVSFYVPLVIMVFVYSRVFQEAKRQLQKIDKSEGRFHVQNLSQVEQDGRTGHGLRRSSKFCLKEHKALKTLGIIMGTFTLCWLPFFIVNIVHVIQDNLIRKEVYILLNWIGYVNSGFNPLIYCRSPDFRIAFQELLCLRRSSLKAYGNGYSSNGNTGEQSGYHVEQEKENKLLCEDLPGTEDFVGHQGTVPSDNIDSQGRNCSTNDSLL

[18] = biological target: Melanocortin receptor 4 (Homo sapiens) (UniProt P32245); experiment: Inhibition of human MC4 receptor at 1 uM
Chain of Melanocortin receptor 4 (Homo sapiens) (P32245 whole entry): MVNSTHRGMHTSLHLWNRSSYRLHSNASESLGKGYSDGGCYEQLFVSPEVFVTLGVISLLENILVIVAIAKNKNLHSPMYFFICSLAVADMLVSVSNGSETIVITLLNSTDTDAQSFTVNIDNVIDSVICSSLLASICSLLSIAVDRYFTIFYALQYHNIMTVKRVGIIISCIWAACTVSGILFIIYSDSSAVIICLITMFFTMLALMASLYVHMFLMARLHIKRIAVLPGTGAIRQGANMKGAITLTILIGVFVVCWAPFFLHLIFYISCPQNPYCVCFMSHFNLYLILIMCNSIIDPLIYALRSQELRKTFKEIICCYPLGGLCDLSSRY

Rattus norvegicus [19] = experiment: Target occupancy at SERT in Harlan rat at 10 mg/kg, sc administered QD for 3 days relative to vehicle-treated control; type: functional; conditions: route subcutaneous
[20] = biological target: 5-hydroxytryptamine receptor 7 (Homo sapiens, UniProt P34969); experiment: Antagonist activity at human 5HT7 receptor expressed in HEK-CNG cells assessed as effect on cAMP production by fluorescence based assay; type: functional, cell-based
Chain of 5-hydroxytryptamine receptor 7 (P34969 whole entry): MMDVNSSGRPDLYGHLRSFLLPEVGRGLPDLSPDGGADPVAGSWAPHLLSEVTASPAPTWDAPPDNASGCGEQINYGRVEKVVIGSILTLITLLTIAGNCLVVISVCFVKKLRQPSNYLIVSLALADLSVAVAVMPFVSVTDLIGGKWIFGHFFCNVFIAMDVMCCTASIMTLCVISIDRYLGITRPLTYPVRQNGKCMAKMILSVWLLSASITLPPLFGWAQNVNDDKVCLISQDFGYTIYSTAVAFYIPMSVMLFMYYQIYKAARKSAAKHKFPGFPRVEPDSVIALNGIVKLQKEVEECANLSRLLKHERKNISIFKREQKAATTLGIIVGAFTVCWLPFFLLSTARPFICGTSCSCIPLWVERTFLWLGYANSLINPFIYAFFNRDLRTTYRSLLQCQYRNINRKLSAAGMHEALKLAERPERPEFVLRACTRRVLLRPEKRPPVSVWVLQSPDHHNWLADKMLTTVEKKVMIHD

[21] = biological target: Sodium-dependent dopamine transporter (Rattus norvegicus, UniProt P23977); experiment: Inhibition of DAT-mediated [3H]DA in rat synaptosomes by scintillation counting; type: subcellular, Brain
Chain of Sodium-dependent dopamine transporter (P23977 whole entry): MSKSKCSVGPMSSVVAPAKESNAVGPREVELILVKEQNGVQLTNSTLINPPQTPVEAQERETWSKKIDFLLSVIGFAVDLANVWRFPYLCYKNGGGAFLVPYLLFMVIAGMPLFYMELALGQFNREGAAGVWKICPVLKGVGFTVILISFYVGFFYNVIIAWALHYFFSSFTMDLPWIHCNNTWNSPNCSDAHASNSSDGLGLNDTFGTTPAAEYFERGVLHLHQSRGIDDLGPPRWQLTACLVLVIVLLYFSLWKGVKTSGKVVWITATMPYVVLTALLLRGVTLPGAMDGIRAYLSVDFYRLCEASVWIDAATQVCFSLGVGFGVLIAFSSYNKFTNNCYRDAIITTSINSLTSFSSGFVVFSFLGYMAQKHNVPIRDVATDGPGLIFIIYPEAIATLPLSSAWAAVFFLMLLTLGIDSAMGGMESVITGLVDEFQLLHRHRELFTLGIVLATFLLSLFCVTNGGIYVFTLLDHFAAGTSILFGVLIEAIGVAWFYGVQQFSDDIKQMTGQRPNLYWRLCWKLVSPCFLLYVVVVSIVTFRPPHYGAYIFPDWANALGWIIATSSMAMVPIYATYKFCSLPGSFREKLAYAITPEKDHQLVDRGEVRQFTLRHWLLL

Cytochrome P450 2D6 = Cytochrome P450 2D6 (Homo sapiens, UniProt P10635); experiment: Inhibition of human recombinant CYP2D6 using 3-[2-(N,N-diethyl-N-methylamino)ethyl]-7-methoxy- 4-methylcoumarin after 45 mins by fluorescence spectrophotometric analysis; type: ADME
Chain of Cytochrome P450 2D6 (P10635 whole entry): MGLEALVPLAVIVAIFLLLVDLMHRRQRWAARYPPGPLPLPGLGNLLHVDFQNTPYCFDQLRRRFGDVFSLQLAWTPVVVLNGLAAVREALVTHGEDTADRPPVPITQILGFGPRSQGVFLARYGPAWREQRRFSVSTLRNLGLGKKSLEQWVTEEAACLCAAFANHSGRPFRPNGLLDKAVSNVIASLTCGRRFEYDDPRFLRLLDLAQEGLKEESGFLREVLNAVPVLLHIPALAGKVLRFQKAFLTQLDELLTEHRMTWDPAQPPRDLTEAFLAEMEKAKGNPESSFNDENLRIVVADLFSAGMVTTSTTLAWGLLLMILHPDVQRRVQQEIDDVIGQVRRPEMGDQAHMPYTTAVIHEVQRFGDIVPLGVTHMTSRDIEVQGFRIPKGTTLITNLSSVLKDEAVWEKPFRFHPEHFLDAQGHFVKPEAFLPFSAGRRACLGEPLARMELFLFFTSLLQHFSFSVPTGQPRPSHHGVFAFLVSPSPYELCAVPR

[22] = biological target: T1, 5-hydroxytryptamine receptor 3A; experiment: Binding affinity to human 5HT3A receptor

Cc1ccc(Sc2ccccc2N2CCNCC2)c(C)c1.Cl gave a Ki (Histamine H1 receptor) of 180 nM, a Ki (Histamine H2 receptor) of 180 nM and a Ki [1] of 23 nM. It also gave an IC50 (Cytochrome P450 1A2) of 40000 nM, a CLH (Liver microsomes [2]) of 0.5 L/min and a Ki [3] of 33 nM. For the same molecule, the EC50 [4] was 120 nM, the inhibition [5] was 100% and the Activity (Rattus norvegicus [6]) was “Dose-dependent effect”. It also gave an inhibition [7] of 88%, a Ki [8] of 220 nM and an Occ (Rattus norvegicus [9]) of 43%. For the same molecule, the Efficacy [10] was 64%, the Activity (Rattus norvegicus [11]) was “Active” and the Efficacy [12] was 55%. For the same molecule, the IC50 (Cytochrome P450 2C9) was 39000 nM, the Ki [13] was 230 nM and the CLH (Liver microsomes [14]) was 55 mL/min. The Activity [15] was “inactive”, the Activity (Rattus norvegicus [16]) was “Active” and the Ki [17] was 560 nM. For the same molecule, the inhibition [18] was 51%, the Occ (Rattus norvegicus [19]) was 57% and the Ki [20] was 450 nM. It also gave an IC50 [21] of 890 nM, an IC50 (Cytochrome P450 2D6) of 9800 nM and a Ki [22] of 3.7 nM.
